Test results taken from US20220331303A1, “USE OF AN OREXIN 2 RECEPTOR AGONIST FOR THE TREATMENT OF EXCESSIVE SLEEPINESS” (Takeda Pharmaceutical Company Limited, priority 2019, published 2022).
Where “and” joins values, the source holds several entries; their conditions need not be identical. Equal entries are not always repeated.

Tested on: sleep-deprived healthy volunteers
Assay: Maintenance of wakefulness test (MWT) in sleep-deprived healthy volunteers
Assay type: in vivo, human
Conditions: for Total Sleep Time LS Mean / Total Sleep Time LS Mean Difference vs Placebo Estimate / Total Wake Time LS Mean / Total Wake Time LS Mean Difference vs Placebo Estimate: M: Modafinil 300 mg; for Duration Total Microsleeps (MWT), LS Mean / Duration Total Microsleeps (MWT), LS Mean Difference vs placebo / Latency to Sleep Onset on MWT, LS Mean / Latency to Sleep Onset on MWT, LS Mean Difference vs placebo / Stage N1 Duration (MWT), LS Mean / Stage N1 Duration (MWT), LS Mean Difference vs placebo / Stage N2 Duration (MWT), LS Mean / Stage N2 Duration (MWT), LS Mean Difference vs placebo / Total Microsleeps (MWT), LS Mean / Total Microsleeps (MWT), LS Mean Difference vs placebo: Modafinil 300 mg (M)
Procedure: The primary objective of this study was to determine the effect of Compound A (methyl (2R,3S)-3-((methylsulfonyl)amino)-2-(((cis-4-phenylcyclohexyl)oxy)methyl)piperidine-1-carboxylate), 44 mg (low dose [LD]) and 112 mg (high dose [HD]), after a single IV dose (compared to placebo) on promoting wakefulness as measured by sleep latency on the MWT (performed at approximately 2, 4, 6, and 8 hours post-dosing starting at approximately 1:00 AM and then at approximate times of 3:00, 5:00, and 7:00 AM) in sleep-deprived healthy volunteers.
This was a phase 1b, single-center, randomized, double-blind, double-dummy, placebo- and active-controlled, 4-period Williams design crossover study to evaluate the PK, PD, and safety of Compound A in sleep-deprived healthy volunteers. Compound A was administered as a 9-hour IV infusion.
Healthy adult male subjects aged 18 to 40 years, inclusive, who satisfied the inclusion and exclusion criteria were enrolled in the trial. On Day 1 of treatment period 1, eligible subjects were equally randomized to 4 treatment sequence groups (sequence 1 to 4) which defined the order of administration for Compound A LD, Compound A HD (both delivered as a 9-hour IV infusion), modafinil 300 mg, and placebo.
During the day before dosing on Day 1, participants were administered the KSS at scheduled timepoints. A practice MWT session was performed on Day 1 treatment period 1 (only once during the entire study) to familiarize subjects with the procedures. Study drug was administered in the clinic in the evening on Day 1 of each treatment period. Subjects underwent the MWT and KSS at specified timepoints after the start of the infusion. Subjects were required to stay awake between the MWT tests. Following completion of the IV infusion on Day 2, subjects underwent an additional MWT test. When the final MWT test and cognitive testing were completed, subjects were allowed to sleep (recovery sleep) for approximately 6 hours. PSG recording was collected during this time. Subjects were discharged from the unit after completion on Day 2 with continuing actigraphy upon discharge (to begin on Day −6 before the next treatment period). The interval between each subsequent treatment period was at least 7 days to ensure that the subject's circadian rhythm had returned to a normal cycle. Subject's vital signs, including BP, were monitored during the dosing and testing period. Blood samples for determination of Compound A plasma concentrations were collected at specified timepoints on Days 1 and 2 of each treatment period. Subjects completed the Columbia-Suicide Severity Rating Scale (C-SSRS) during screening, before study drug administration, and before discharge on Day 2 of each treatment period.
Primary endpoint: Latency for each MWT, defined as time to sleep onset.

[1] = Average Overall, MWT during infusion
[2] = Modafinil 300 mg, after the end of infusion (1 hour post end of infusion)

NC(=O)C[S+]([O-])C(c1ccccc1)c1ccccc1 (centres unmarked) [Modafinil, modafinil, reference compound]
Total Sleep Time LS Mean (2 HOURS POST INFUSION START): 0.88 min
Total Sleep Time LS Mean Difference vs Placebo Estimate (2 HOURS POST INFUSION START): -1.85 min
Total Wake Time LS Mean (2 HOURS POST INFUSION START): 34.87 min
Total Wake Time LS Mean Difference vs Placebo Estimate (2 HOURS POST INFUSION START): 17.15 min
Total Sleep Time LS Mean (4 HOURS POST INFUSION START): 0.96 min
Total Sleep Time LS Mean Difference vs Placebo Estimate (4 HOURS POST INFUSION START): -2.19 min
Total Wake Time LS Mean (4 HOURS POST INFUSION START): 36.45 min
Total Wake Time LS Mean Difference vs Placebo Estimate (4 HOURS POST INFUSION START): 26.40 min
Total Sleep Time LS Mean (6 HOURS POST INFUSION START): 1.25 min
Total Sleep Time LS Mean Difference vs Placebo Estimate (6 HOURS POST INFUSION START): -0.98 min
Total Wake Time LS Mean (6 HOURS POST INFUSION START): 33.11 min
Total Wake Time LS Mean Difference vs Placebo Estimate (6 HOURS POST INFUSION START): 26.69 min
Total Sleep Time LS Mean (8 HOURS POST INFUSION START): 2.35 min
Total Sleep Time LS Mean Difference vs Placebo Estimate (8 HOURS POST INFUSION START): -0.57 min
Total Wake Time LS Mean (8 HOURS POST INFUSION START): 22.32 min
Total Wake Time LS Mean Difference vs Placebo Estimate (8 HOURS POST INFUSION START): 18.67 min
Total Sleep Time LS Mean [1]: 1.36 min
Total Sleep Time LS Mean Difference vs Placebo Estimate [1]: -1.40 min
Total Wake Time LS Mean [1]: 31.69 min
Total Wake Time LS Mean Difference vs Placebo Estimate [1]: 22.23 min
Average total wake time (MWT), LS mean difference vs placebo (Modafinil 300 mg): 22.23 min
Total sleep time (MWT), LS mean difference vs placebo (Modafinil 300 mg): -1.40 min
Duration Total Microsleeps (MWT), LS Mean (2 hours post infusion start): 5.75 s
Duration Total Microsleeps (MWT), LS Mean Difference vs placebo (2 hours post infusion start): -3.05 s
Latency to Sleep Onset on MWT, LS Mean (2 hours post infusion start): 35.57 min
Latency to Sleep Onset on MWT, LS Mean Difference vs placebo (2 hours post infusion start): 19.89 min
Stage N1 Duration (MWT), LS Mean (2 hours post infusion start): 0.47 min
Stage N1 Duration (MWT), LS Mean Difference vs placebo (2 hours post infusion start): -0.68 min
Stage N2 Duration (MWT), LS Mean (2 hours post infusion start): 0.36 min
Stage N2 Duration (MWT), LS Mean Difference vs placebo (2 hours post infusion start): -0.49 min
Total Microsleeps (MWT), LS Mean (2 hours post infusion start): 1.06
Total Microsleeps (MWT), LS Mean Difference vs placebo (2 hours post infusion start): −0.74
Duration Total Microsleeps (MWT), LS Mean (4 hours post infusion start): 7.91 s
Duration Total Microsleeps (MWT), LS Mean Difference vs placebo (4 hours post infusion start): -4.39 s
Latency to Sleep Onset on MWT, LS Mean (4 hours post infusion start): 35.60 min
Latency to Sleep Onset on MWT, LS Mean Difference vs placebo (4 hours post infusion start): 26.50 min
Stage N1 Duration (MWT), LS Mean (4 hours post infusion start): 0.68 min
Stage N1 Duration (MWT), LS Mean Difference vs placebo (4 hours post infusion start): -0.97 min
Stage N2 Duration (MWT), LS Mean (4 hours post infusion start): 0.20 min
Stage N2 Duration (MWT), LS Mean Difference vs placebo (4 hours post infusion start): -0.95 min
Total Microsleeps (MWT), LS Mean (4 hours post infusion start): 1.27
Total Microsleeps (MWT), LS Mean Difference vs placebo (4 hours post infusion start): −1.08
Duration Total Microsleeps (MWT), LS Mean (6 hours post infusion start): 9.70 s
Duration Total Microsleeps (MWT), LS Mean Difference vs placebo (6 hours post infusion start): 2.30 s
Latency to Sleep Onset on MWT, LS Mean (6 hours post infusion start): 31.89 min
Latency to Sleep Onset on MWT, LS Mean Difference vs placebo (6 hours post infusion start): 25.74 min
Stage N1 Duration (MWT), LS Mean (6 hours post infusion start): 0.84 min
Stage N1 Duration (MWT), LS Mean Difference vs placebo (6 hours post infusion start): -0.31 min
Stage N2 Duration (MWT), LS Mean (6 hours post infusion start): 0.20 min
Stage N2 Duration (MWT), LS Mean Difference vs placebo (6 hours post infusion start): -0.30 min
Total Microsleeps (MWT), LS Mean (6 hours post infusion start): 1.85
Total Microsleeps (MWT), LS Mean Difference vs placebo (6 hours post infusion start): 0.60
Duration Total Microsleeps (MWT), LS Mean (8 hours post infusion start): 12.64 s
Duration Total Microsleeps (MWT), LS Mean Difference vs placebo (8 hours post infusion start): 4.84 s
Latency to Sleep Onset on MWT, LS Mean (8 hours post infusion start): 20.44 min
Latency to Sleep Onset on MWT, LS Mean Difference vs placebo (8 hours post infusion start): 16.91 min
Stage N1 Duration (MWT), LS Mean (8 hours post infusion start): 1.15 min
Stage N1 Duration (MWT), LS Mean Difference vs placebo (8 hours post infusion start): 0.00 min
Stage N2 Duration (MWT), LS Mean (8 hours post infusion start): 0.89 min
Stage N2 Duration (MWT), LS Mean Difference vs placebo (8 hours post infusion start): -0.21 min
Total Microsleeps (MWT), LS Mean (8 hours post infusion start): 2.22
Total Microsleeps (MWT), LS Mean Difference vs placebo (8 hours post infusion start): 0.92
Duration Total Microsleeps (MWT), LS Mean (average overall): 9.00 s
Duration Total Microsleeps (MWT), LS Mean Difference vs placebo (average overall): -0.08 s
Latency to Sleep Onset on MWT, LS Mean (average overall): 30.87 min and 30.87 (1.888) min
Latency to Sleep Onset on MWT, LS Mean Difference vs placebo (average overall): 22.26 min and 22.3 min and 22.62 min and 22.26 (2.634) min
Stage N1 Duration (MWT), LS Mean (average overall): 0.79 min
Stage N1 Duration (MWT), LS Mean Difference vs placebo (average overall): -0.49 min
Stage N2 Duration (MWT), LS Mean (average overall): 0.41 min
Stage N2 Duration (MWT), LS Mean Difference vs placebo (average overall): -0.49 min
Total Microsleeps (MWT), LS Mean (average overall): 1.60
Total Microsleeps (MWT), LS Mean Difference vs placebo (average overall): −0.08
Latency to Sleep Onset on MWT, LS Mean (SE) [2]: 21.42 (2.168)
Latency to Sleep Onset on MWT, LS Mean Difference vs placebo, Estimate (SE) [2]: 16 minutes and 16.77 (2.692) minutes
